# Results published in patent US5958938A, “Bis-pyrido[4,3-b]carbazole compounds” (Adir et Compagnie, priority 1997, dated 1999).
# Read-outs that look alike come from different tables or passages of the source.
# Assays:
# [1] = tested on: murine melanoma, B 16; assay: Cytotoxicity, Microculture Tetrazolium Assay, B 16; format: cell-based; settings: for IC50: Mus musculus, read-out: IC50 (cytotoxicity)
# Excerpt: (§1) Three cell lines were used:
# (§2) The cells are distributed on microplates and exposed to the cytotoxic compounds.
# [2] = tested on: murine leukaemia, L 1210; assay: Cytotoxicity, Microculture Tetrazolium Assay, L 1210; format: cell-based; settings: Mus musculus, L1210, 48 h, read-out: IC50 (cytotoxicity)
# Excerpt: as §1, §2
# [3] = tested on: human pulmonary carcinoma, A 549; assay: Cytotoxicity, Microculture Tetrazolium Assay, A 549; format: cell-based; settings: for IC50: Homo sapiens, A549, 96 h, read-out: IC50 (cytotoxicity)
# Excerpt: as §1, §2
# [4] = tested on: B 16 (murine melanoma); assay: In vivo anti-tumor activity, B 16 i.p.; design: species or system BDF1 mouse; settings: for % T/C / Long-term survivors/total no. of mice: D1-9, i.p.; for Long-term survivors/total no. of mice: survivors at 90 days
# Description: Line B 16 (murine melanoma) is supplied by The National Cancer Institute (Frederick, USA). The tumor is maintained by successive subcutaneous grafts of tumor fragments. On day 0, the tumors are broken up and homogenised in 0.9% NaCl (1 g, of tumor in 10 ml) and 0.5 ml of the homogenate is injected into the peritoneal cavity of each BDF1 mouse. The products are administered intraperitoneally at the doses indicated once a day for 9 days (D1-9).
# The anti-tumor activity is expressed as % T/C, as defined above. The animals surviving at 90 days (long-term survivors) are indicated.
# [5] = tested on: P 388 (murine leukaemia); assay: In vivo anti-tumor activity, P 388 i.p.; design: species or system female BDF1 mice; settings: for Long-term survivors/total no. of mice: survivors at 60 days
# Description: Line P 388 (murine leukaemia) is supplied by The National Cancer Institute (Frederick, USA). The tumor cells (10^6 cells) are inoculated on day 0 into the peritoneal cavity of female BDF1 mice (Iffa-Credo, France) weighing from 18 to 20 g (groups of 6 or 7 animals).
# The products are administered intravenously on day 1 or on days 1, 5 and 9 at the doses indicated.
# The anti-tumor activity is expressed as % T/C: [formula]
# The animals surviving at 60 days (long-term survivors) are indicated.
# [6] = B16, 96 h, B 16, 4 days incubation
# [7] = D1,5,9, i.v., optimum dose 10 mg/kg
# [8] = D1, i.v., optimum dose 10 mg/kg
# [9] = D1,5,9, i.v., optimum dose 80 mg/kg
# [10] = D1, i.v., optimum dose 80 mg/kg
structure (smiles),measurement,setting,value
"Cc1c2c(C(=O)NCCN(C)C)nccc2c(C)c2c1c1cc(OC(=O)CCCCC(=O)Oc3ccc4c(c3)c3c(C)c5c(C(=O)NCCN(C)C)nccc5c(C)c3n4C)ccc1n2C [Example 1, bis[1-(2-dimethylaminoethylcarbamoyl)-5,6, 11-trimethyl-6H-pyrido[4,3-b]carbazol-9-yl] ester of hexanedloic acid]",Cytotoxicity compared with reference products A and B,"[1]; B 16, in words",more cytotoxic than reference products A and B
same,Cytotoxicity compared with line L 1210,"[1]; B 16 versus L 1210, in words",greater for lines B 16 and A 549 than for line L 1210
same,IC50,[1]; [6],3 nM
same,IC50,"[2]; L 1210, 2 days incubation",73.5 nM
same,Cytotoxicity compared with reference products A and B,"[3]; A 549, in words",more cytotoxic than reference products A and B
same,Cytotoxicity compared with line L 1210,"[3]; A 549 versus L 1210, in words",greater for lines B 16 and A 549 than for line L 1210
same,IC50,"[3]; A 549, 4 days incubation",17.6 nM
same,% T/C,[4]; optimum dose 5 mg/kg,429%
same,Long-term survivors/total no. of mice,[4]; optimum dose 5 mg/kg,3/7
same,Long-term survivors,"[4]; melanoma B 16 model, at the optimum dose",3 long-term survivors
same,Anti-tumor activity,"[4]; melanoma B 16 model, in words",very active
same,% T/C,[5]; [7],> 582%
same,Long-term survivors/total no. of mice,[5]; [7],3/6
same,% T/C,[5]; [8],252%
same,Long-term survivors/total no. of mice,[5]; [8],1/6
same,Anti-tumor activity compared with reference product A,"[5]; leukaemia P 388 model, in words","more potent than, and as active as, reference product A"
"Cc1c2ccnc(C(=O)NCCN(C)C)c2cc2c3cc(O)ccc3n(C)c12 [Reference A, 1-(N,N-dimethylaminoethylaminocarbamoyl)-5,6-diiethyl-9-hydroxy-6H-pyrido-[4,3-b]carbazole, reference compound]",IC50,[1]; [6],5.1 nM
same,IC50,"[2]; L 1210, 2 days incubation",7.8 nM
same,IC50,"[3]; A 549, 4 days incubation",30.5 nM
same,% T/C,[4]; optimum dose 10 mg/kg,190%
same,Long-term survivors/total no. of mice,[4]; optimum dose 10 mg/kg,0/7
same,Long-term survivors,"[4]; melanoma B 16 model, in words",none
same,% T/C,[5]; [9],320%
same,Long-term survivors/total no. of mice,[5]; [9],2/6
same,% T/C,[5]; [10],221%
same,Long-term survivors/total no. of mice,[5]; [10],0/6
"COc1cccc2c1C(=O)c1c(O)c3c(c(O)c1C2=O)C[C@@](O)(C(=O)CO)C[C@@H]3O[C@H]1C[C@H](N)[C@H](O)[C@H](C)O1 [Reference B, adriamycin, reference compound]",IC50,[1]; 96 h,6.8 nM
same,IC50,[2],24.3 nM
same,IC50,[3],39.4 nM
